Data taken from PubChem BioAssay AID248 (DTP/NCI, 2004).
“And” between values parts separate entries of the source, which are not always exact repeats. Equal entries are not always repeated. Inconclusive results and toxic doses are left out.

Test system: L1210 leukemia ip in BDF1 mice, survival T/C
Test: NCI In Vivo Anticancer Drug Screen. Data for tumor model L1210 Leukemia (intraperitoneal) in B6D2F1 (BDF1) mice
Conditions: endpoint: mean survival time, higher = longer survival
How it was run: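 Tumor was transplanted into mice, which were then dosed with test compound or vehicle alone. Survival was recorded for each group, and the treated figure was expressed relative to the control figure.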

O=C(O)c1[nH]c(=O)[nH]c(=O)c1F
T/C (dose: 0.09 mg/kg/injection, schedule: Q01DX005 (oral), vehicle: saline): 112 % of control | T/C (dose: 0.18 mg/kg/injection, schedule: Q01DX005 (oral), vehicle: saline): 108 % of control | T/C (dose: 0.18 mg/kg/injection, schedule: Q01DX015 (ip), vehicle: saline): 115 % of control | T/C (dose: 0.37 mg/kg/injection, schedule: Q01DX005 (oral), vehicle: saline): 115 % of control | T/C (dose: 0.37 mg/kg/injection, schedule: Q01DX015 (ip), vehicle: saline): 157 % of control | T/C (dose: 0.63 mg/kg/injection, schedule: Q01DX015 (ip), vehicle: carboxymethylcellulose (CMC)): 105 % of control | T/C (dose: 0.75 mg/kg/injection, schedule: Q01DX005 (oral), vehicle: saline): 120 % of control | T/C (dose: 0.75 mg/kg/injection, schedule: Q01DX015 (ip), vehicle: saline): 188 % of control | T/C (dose: 0.75 mg/kg/injection, schedule: Q01DX015 (oral), vehicle: saline): 115 % of control | T/C (dose: 0.75 mg/kg/injection, schedule: Q## X003 (oral), vehicle: saline): 101 % of control | T/C (dose: 0.75 mg/kg/injection, schedule: Q## X024 (oral), vehicle: saline): 112 % of control | T/C (dose: 1.0 mg/kg/injection, schedule: Q01DX009 (ip), vehicle: saline with Tween-80): 114 % of control | T/C (dose: 1.0 mg/kg/injection, schedule: Q01DX009 (ip), vehicle: saline): 113 % of control | T/C (dose: 1.25 mg/kg/injection, schedule: Q01DX009 (ip), vehicle: saline): 97 % of control and 111 % of control | T/C (dose: 1.25 mg/kg/injection, schedule: Q01DX015 (ip), vehicle: carboxymethylcellulose (CMC)): 111 % of control | T/C (dose: 1.3 mg/kg/injection, schedule: Q## X008 (oral), vehicle: saline): 111 % of control | T/C (dose: 1.5 mg/kg/injection, schedule: Q01DX006 (iv), vehicle: saline): 112 % of control | T/C (dose: 1.5 mg/kg/injection, schedule: Q01DX009 (oral), vehicle: saline): 114 % of control | T/C (dose: 1.5 mg/kg/injection, schedule: Q01DX015 (im), vehicle: saline): 117 % of control | T/C (dose: 1.5 mg/kg/injection, schedule: Q01DX015 (sc), vehicle: saline): 120 % of control | T/C (dose: 1.5 mg/kg/injection, schedule: Q## X003 (oral), vehicle: saline): 104 % of control | T/C (dose: 1.5 mg/kg/injection, schedule: Q## X024 (oral), vehicle: saline): 113 % of control | T/C (dose: 2.5 mg/kg/injection, schedule: Q01DX009 (ip), vehicle: saline): 117 % of control | T/C (dose: 2.5 mg/kg/injection, schedule: Q01DX015 (ip), vehicle: carboxymethylcellulose (CMC)): 122 % of control | T/C (dose: 2.6 mg/kg/injection, schedule: Q## X008 (oral), vehicle: saline): 114 % of control | T/C (dose: 3.0 mg/kg/injection, schedule: Q01DX005 (oral), vehicle: saline): 157 % of control | T/C (dose: 3.0 mg/kg/injection, schedule: Q01DX006 (iv), vehicle: saline): 120 % of control | T/C (dose: 3.0 mg/kg/injection, schedule: Q01DX009 (ip), vehicle: saline): 165 % of control | T/C (dose: 3.0 mg/kg/injection, schedule: Q01DX015 (ip), vehicle: saline): 191 % of control | T/C (dose: 3.0 mg/kg/injection, schedule: Q01DX015 (oral), vehicle: saline): 157 % of control | T/C (dose: 3.0 mg/kg/injection, schedule: Q## X003 (oral), vehicle: saline): 103 % of control | T/C (dose: 4.0 mg/kg/injection, schedule: Q01DX009 (ip), vehicle: saline with Tween-80): 161 % of control | T/C (dose: 4.0 mg/kg/injection, schedule: Q01DX009 (ip), vehicle: saline): 165 % of control | T/C (dose: 5.0 mg/kg/injection, schedule: Q01DX009 (ip), vehicle: saline): 155 % of control | T/C (dose: 5.0 mg/kg/injection, schedule: Q01DX015 (ip), vehicle: carboxymethylcellulose (CMC)): 155 % of control | T/C (dose: 5.0 mg/kg/injection, schedule: Q01DX Z (ip), vehicle: methylcellulose (MC)): 119 % of control | T/C (dose: 5.2 mg/kg/injection, schedule: Q## X008 (oral), vehicle: saline): 119 % of control | T/C (dose: 6.0 mg/kg/injection, schedule: Q01DX005 (oral), vehicle: saline): 174 % of control | T/C (dose: 6.0 mg/kg/injection, schedule: Q01DX006 (iv), vehicle: saline): 121 % of control | T/C (dose: 6.0 mg/kg/injection, schedule: Q01DX009 (ip), vehicle: saline): 211 % of control | T/C (dose: 6.0 mg/kg/injection, schedule: Q01DX015 (im), vehicle: saline): 179 % of control | T/C (dose: 6.0 mg/kg/injection, schedule: Q01DX015 (ip), vehicle: saline): 164 % of control | T/C (dose: 6.0 mg/kg/injection, schedule: Q01DX015 (oral), vehicle: saline): 191 % of control | T/C (dose: 6.0 mg/kg/injection, schedule: Q01DX015 (sc), vehicle: saline): 182 % of control | T/C (dose: 6.0 mg/kg/injection, schedule: Q## X003 (oral), vehicle: saline): 113 % of control | T/C (dose: 6.0 mg/kg/injection, schedule: Q## X024 (oral), vehicle: saline): 157 % of control | T/C (dose: 7.0 mg/kg/injection, schedule: Q01DX015 (ip), vehicle: carboxymethylcellulose (CMC)): 189 % of control | T/C (dose: 8.0 mg/kg/injection, schedule: Q01DX009 (ip), vehicle: saline): 188 % of control | T/C (dose: 10.0 mg/kg/injection, schedule: Q01DX009 (ip), vehicle: saline): 188 % of control and 206 % of control | T/C (dose: 10.5 mg/kg/injection, schedule: Q01DX001 (oral), vehicle: saline): 111 % of control | T/C (dose: 11.0 mg/kg/injection, schedule: Q01DX015 (ip), vehicle: carboxymethylcellulose (CMC)): 214 % of control | T/C (dose: 11.0 mg/kg/injection, schedule: Q01DX Z (ip), vehicle: methylcellulose (MC)): 109 % of control | T/C (dose: 12.0 mg/kg/injection, schedule: Q01DX006 (iv), vehicle: saline): 153 % of control | T/C (dose: 12.0 mg/kg/injection, schedule: Q01DX009 (ip), vehicle: saline): 100 % of control and 101 % of control | T/C (dose: 12.0 mg/kg/injection, schedule: Q01DX015 (im), vehicle: saline): 162 % of control | T/C (dose: 12.0 mg/kg/injection, schedule: Q01DX015 (ip), vehicle: saline): 155 % of control | T/C (dose: 12.0 mg/kg/injection, schedule: Q01DX015 (sc), vehicle: saline): 171 % of control | T/C (dose: 12.0 mg/kg/injection, schedule: Q## X024 (oral), vehicle: saline): 154 % of control | T/C (dose: 12.0 mg/kg/injection, schedule: Q## X040 (oral), vehicle: saline): 87 % of control | T/C (dose: 16.0 mg/kg/injection, schedule: Q01DX009 (ip), vehicle: saline): 107 % of control | T/C (dose: 16.0 mg/kg/injection, schedule: Q01DX015 (ip), vehicle: carboxymethylcellulose (CMC)): 183 % of control | T/C (dose: 21.0 mg/kg/injection, schedule: Q01DX001 (oral), vehicle: saline): 106 % of control | T/C (dose: 24.0 mg/kg/injection, schedule: Q01DX009 (ip), vehicle: saline): 110 % of control | T/C (dose: 24.0 mg/kg/injection, schedule: Q01DX009 (oral), vehicle: saline): 112 % of control | T/C (dose: 24.0 mg/kg/injection, schedule: Q01DX015 (im), vehicle: saline): 120 % of control | T/C (dose: 24.0 mg/kg/injection, schedule: Q01DX015 (ip), vehicle: saline): 114 % of control | T/C (dose: 24.0 mg/kg/injection, schedule: Q01DX015 (oral), vehicle: saline): 104 % of control | T/C (dose: 24.0 mg/kg/injection, schedule: Q## X024 (oral), vehicle: saline): 156 % of control | T/C (dose: 32.0 mg/kg/injection, schedule: Q04DX003 (ip), vehicle: saline): 178 % of control | T/C (dose: 48.0 mg/kg/injection, schedule: Q01DX006 (iv), vehicle: saline): 183 % of control | T/C (dose: 48.0 mg/kg/injection, schedule: Q01DX009 (ip), vehicle: saline): 88 % of control | T/C (dose: 48.0 mg/kg/injection, schedule: Q01DX009 (oral), vehicle: saline): 101 % of control | T/C (dose: 48.0 mg/kg/injection, schedule: Q01DX015 (im), vehicle: saline): 95 % of control and 112 % of control | T/C (dose: 48.0 mg/kg/injection, schedule: Q01DX015 (ip), vehicle: carboxymethylcellulose (CMC)): 120 % of control | T/C (dose: 48.0 mg/kg/injection, schedule: Q01DX015 (ip), vehicle: saline): 101 % of control and 114 % of control | T/C (dose: 48.0 mg/kg/injection, schedule: Q01DX015 (oral), vehicle: saline): 97 % of control | T/C (dose: 48.0 mg/kg/injection, schedule: Q01DX015 (sc), vehicle: saline): 106 % of control and 108 % of control | T/C (dose: 48.0 mg/kg/injection, schedule: Q## X003 (oral), vehicle: saline): 158 % of control | T/C (dose: 48.0 mg/kg/injection, schedule: Q## X024 (oral), vehicle: saline): 109 % of control | T/C (dose: 64.0 mg/kg/injection, schedule: Q04DX003 (ip), vehicle: saline): 193 % of control | T/C (dose: 84.0 mg/kg/injection, schedule: Q01DX001 (oral), vehicle: saline): 121 % of control | T/C (dose: 96.0 mg/kg/injection, schedule: Q01DX006 (iv), vehicle: saline): 106 % of control | T/C (dose: 96.0 mg/kg/injection, schedule: Q01DX015 (im), vehicle: saline): 86 % of control | T/C (dose: 96.0 mg/kg/injection, schedule: Q01DX015 (oral), vehicle: saline): 87 % of control | T/C (dose: 96.0 mg/kg/injection, schedule: Q## X024 (oral), vehicle: saline): 98 % of control | T/C (dose: 192.0 mg/kg/injection, schedule: Q01DX006 (iv), vehicle: saline): 104 % of control | T/C (dose: 192.0 mg/kg/injection, schedule: Q01DX015 (oral), vehicle: saline): 87 % of control | T/C (dose: 356.0 mg/kg/injection, schedule: Q## X008 (oral), vehicle: saline): 111 % of control | T/C (dose: 384.0 mg/kg/injection, schedule: Q01DX006 (iv), vehicle: saline): 86 % of control | T/C (dose: 384.0 mg/kg/injection, schedule: Q## X003 (oral), vehicle: saline): 122 % of control | T/C (dose: 712.0 mg/kg/injection, schedule: Q01DX001 (oral), vehicle: saline): 150 % of control | T/C (dose: 768.0 mg/kg/injection, schedule: Q## X003 (oral), vehicle: saline): 108 % of control | T/C (dose: 1000.0 mg/kg/injection, schedule: Q01DX001 (oral), vehicle: saline): 160 % of control | T/C (dose: 1000.0 mg/kg/injection, schedule: Q## X003 (oral), vehicle: saline): 103 % of control
